Measured values: article PMC7958898 (Journal of Medicinal Chemistry, 2021)
Changes are numbered by the printed parent chain.

Experiments:
hCCR2b [1] = target: T1, hCCR2b (Homo sapiens, UniProt P41597); assay: [3H]-CCR2-RA displacement assay, U2OS-CCR2 membranes; details: ratio of apparent Ki to Ki of compound 7
T1 sequence (P41597 1-360 isoform P41597-2): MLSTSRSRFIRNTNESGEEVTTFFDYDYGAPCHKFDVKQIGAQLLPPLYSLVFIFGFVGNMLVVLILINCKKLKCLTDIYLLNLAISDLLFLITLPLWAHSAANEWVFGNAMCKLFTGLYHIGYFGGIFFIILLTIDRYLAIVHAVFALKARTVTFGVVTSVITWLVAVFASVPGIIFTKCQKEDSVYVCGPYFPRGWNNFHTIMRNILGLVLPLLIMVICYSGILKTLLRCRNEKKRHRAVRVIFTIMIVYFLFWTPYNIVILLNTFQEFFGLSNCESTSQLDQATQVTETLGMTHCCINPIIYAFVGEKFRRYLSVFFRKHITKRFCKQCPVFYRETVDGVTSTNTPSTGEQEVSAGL

[2] = Stability under radioligand binding assay conditions; format: physicochemical
hCCR2b [3] = target: T1, hCCR2b; assay: NanoBiT β-arrestin1 recruitment assay in live HEK293t cells; details: unwashed control vs [35S]GTPγS binding assay
[4] = target: T2, CCR2 triple mutant C70S/C75S/C232S (Homo sapiens, UniProt P41597, C232S/C70S/C75S); assay: [3H]-CCR2-RA-[R] washout assay, CHO membranes, CCR2 triple mutant; details: 160 nM 14, four wash cycles
T2 sequence (P41597 1-360 isoform P41597-2 C70S/C75S/C232S): T1 sequence (P41597 1-360 isoform P41597-2) with C70S, C75S, C232S

Row | Compound | loss/reduction of affinity compared to compound 7 (hCCR2b [1]) | time compound remained intact in assay buffer ([2]; 25 μM, 50 mM Tris-HCl pH 7.4, 5 mM MgCl2, 0.1% CHAPS, room temperature, data not shown) | stability at higher concentration and temperature ([2]; 1 mM compound, 37 °C, over 4 h) | higher potency in β-arrestin recruitment than in [35S]GTPγS binding assay (hCCR2b [3]) | [3H]-CCR2-RA-[R] binding after washout [4]
1 | O=C(NCCN=C=S)c1ccc(Oc2ccc(Cl)cc2NS(=O)(=O)c2ccc(Cl)c(C(F)(F)F)c2)cc1 [Compound 11, 4-(4-Chloro-2-((4-chloro-3-(trifluoromethyl)phenyl)sulfonamido)phenoxy)-N-(2-isothiocyanatoethyl)benzamide] | 5 fold | – | – | – | –
2 | O=C(NCCNC(=O)c1ccc(S(=O)(=O)F)cc1)c1ccc(Oc2ccc(Cl)cc2NS(=O)(=O)c2ccc(Cl)c(C(F)(F)F)c2)cc1 [Compound 13, 4-((2-(4-(4-Chloro-2-((4-chloro-3-(trifluoromethyl)phenyl)sulfonamido)phenoxy)benzamido)ethyl)carbamoyl)benzenesulfonyl Fluoride] | 15 fold | – | – | – | –
3 | N#CSCCNC(=O)c1ccc(Oc2ccc(Cl)cc2NS(=O)(=O)c2ccc(Cl)c(C(F)(F)F)c2)cc1 [Compound 14, 4-(4-Chloro-2-((4-chloro-3-(trifluoromethyl)phenyl)sulfonamido)phenoxy)-N-(2-thiocyanatoethyl)benzamide] | – | over 6 h | gradual degradation | 8 fold | recovered to levels comparable to compound 7
